Measured values from US10357481B2 (MERCK SHARP & DOHME CORP., priority 2015, dated 2019).
Where two headings read alike, the source gives them in different places.

Experiments:
Rhesus PDE2A3 = biological target: T1, Rhesus PDE2A3 (Macaca mulatta, UniProt B3VTJ2); assay: PDE2 fluorescence polarization (IMAP FP) inhibition assay, rhesus PDE2A3; assay type: biochemical, rhesus macaque
T1 construct: made in house; host or cells: AD293 cells, transiently transfected with pcDNA3.3-TOPO; lysate supernatant used
T1 sequence (B3VTJ2 1-941): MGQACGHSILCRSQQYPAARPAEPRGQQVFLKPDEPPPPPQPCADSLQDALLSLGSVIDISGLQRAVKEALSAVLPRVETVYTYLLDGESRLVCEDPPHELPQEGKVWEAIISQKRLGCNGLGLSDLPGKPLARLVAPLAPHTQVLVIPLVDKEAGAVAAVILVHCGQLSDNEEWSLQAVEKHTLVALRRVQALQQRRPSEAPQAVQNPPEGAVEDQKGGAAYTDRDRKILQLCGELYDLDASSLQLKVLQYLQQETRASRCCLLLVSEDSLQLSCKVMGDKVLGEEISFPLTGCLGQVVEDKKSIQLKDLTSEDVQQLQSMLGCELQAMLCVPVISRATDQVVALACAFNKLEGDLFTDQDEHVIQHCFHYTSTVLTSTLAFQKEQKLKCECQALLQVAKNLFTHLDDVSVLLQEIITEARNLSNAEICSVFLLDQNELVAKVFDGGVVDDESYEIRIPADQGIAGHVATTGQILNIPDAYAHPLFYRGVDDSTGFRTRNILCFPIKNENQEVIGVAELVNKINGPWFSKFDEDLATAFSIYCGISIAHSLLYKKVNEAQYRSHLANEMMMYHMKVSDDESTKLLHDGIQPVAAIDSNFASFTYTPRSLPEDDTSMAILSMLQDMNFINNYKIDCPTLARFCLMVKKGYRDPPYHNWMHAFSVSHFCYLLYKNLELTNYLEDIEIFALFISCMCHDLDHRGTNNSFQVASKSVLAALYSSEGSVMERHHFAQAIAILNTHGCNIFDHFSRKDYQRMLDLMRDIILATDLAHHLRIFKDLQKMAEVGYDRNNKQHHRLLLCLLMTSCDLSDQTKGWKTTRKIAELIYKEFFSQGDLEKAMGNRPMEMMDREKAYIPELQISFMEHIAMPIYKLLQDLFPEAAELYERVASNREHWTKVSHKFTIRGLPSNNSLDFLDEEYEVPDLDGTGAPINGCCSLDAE
Method: The activity of the compounds in accordance with the present invention as PDE2 inhibitors may be readily determined using a fluorescence polarization (FP) methodology (Huang, W., et al., J. Biomol Screen, 2002, 7: 215).
In a typical experiment the PDE2 inhibitory activity of the compounds of the present invention was determined in accordance with the following experimental method. Rhesus PDE2A3 was amplified from rhesus macaque brain cDNA (Biochain Institute, Hayward, Calif.) using primers based on human PDE2A sequence (accession NM_002599.3) where the forward primer containing a Kozak consensus was 5′-[…]-3′ and the reverse primer was 5′-[…]-3′. Amplification with Easy-A High-Fidelity PCR cloning enzyme (Stratagene, La Jolla, Calif.) was 95° C. for 2 minutes followed by thirty three cycles of 95° C. for 40 seconds, 52° C. for 30 seconds, and 72° C. for 2 minutes 48 seconds. Final extension was 72° C. for 7 minutes. The PCR product was TA cloned into pcDNA3.3-TOPO (Invitrogen, Carlsbad, Calif.) aaccording to standard protocol. A consensus sequence was developed from multiple clones and then deposited into GenBank (EU812167). AD293 cells (Stratagene, La Jolla, Calif.) with 70-80% confluency were transiently transfected with rhesus PDE2A3/pcDNA3.3-TOPO using Lipofectamine 2000 according to manufacturer specifications (Invitrogen, Carlsbad, Calif.). Cells were harvested 48 hours post-transfection and lysed by sonication (setting 3, 10×5 sec pulses) in a buffer containing 20 mM HEPES pH 7.4, 1 mM EDTA and Complete Protease Inhibitor Cocktail Tablets (Roche, Indianapolis, Ind.). Lysate was collected by centrifugation at 75,000×g for 20 minutes at 4° C. and supernatant utilized for evaluation of PDE2 activity. The fluorescence polarization assay for cyclic nucleotide phosphodiesterases was performed using an IMAP® FP kit supplied by Molecular Devices, Sunnyvale, Calif. (product # R8139). […] Assays were performed at room temperature in 384-well microtiter plates with an incubation volume of 20.2 μL. Solutions of test compounds were prepared in DMSO and serially diluted with DMSO to yield 8 μL of each of 10 solutions differing by 3-fold in concentration, at 32 serial dilutions per plate. […] 0% of inhibition is determined by using DMSO (1% final concentrations).
A Labcyte Echo 555 (Labcyte, Sunnyvale, Calif.) is used to dispense 200 nL from each well of the titration plate to the 384 well assay plate. Ten microliters of a solution of enzyme (1/2000 final dilution from aliquots; sufficient to produce 20% substrate conversion) was added to the assay plate. Next 10 uL of a separate solution of the substrate FAM-labeled cAMP (50 nM final concentration product # R7506 from Molecular Devices) and the activator cGMP (1 uM final concentration), prepared in the assay buffer (10 mM Tris HCl, pH 7.2, 10 mM MgCl2, 0.05% NaN3 0.01% Tween-20, and 1 mM DTT) was added to the assay plate and shaken to mix. The reaction is allowed to proceed at room temperature for 60 minutes. A binding solution is then made from the kit components, comprised of 80% Solution A, 20% Solution B and binding reagent at a volume of 1/600 the total binding solution. The enzymatic reaction is stopped by addition of 60 μL of the binding solution to each well of the assay plates and the plates are sealed and shaken for 30 seconds. The plate was incubated at room temperature for at least one hour prior to determining the fluorescence polarization (FP). The parallel and perpendicular fluorescence of each well of the plate was measured using a Tecan Genios Pro plate reader (Tecan, Switzerland) or Perkin Elmer EnVision™ plate reader (Waltham, Mass.). Fluorescence polarization (mP) was calculated from the parallel (S) and perpendicular (P) fluorescence of each sample well and the analogous values for the median control well, containing only substrate (So and Po), using the following equation: Polarization (mP)=1000*(S/So−P/Po)/(S/So+P/Po).

human PDE2A1 = biological target: T2, human PDE2A1 (Homo sapiens, UniProt O00408); assay: IMAP FP PDE selectivity panel, human PDE2A1; assay type: biochemical
T2 construct: GST; purchased BPS Bioscience (San Diego, Calif.) 60020; host or cells: insect cells
Procedure, shortened: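 IMAP FP read-out, run at room temperature in parallel with PDE1–11: enzyme at 20% substrate conversion, 50 nM FAM-cAMP containing 1000 nM cGMP, Tris pH 7.2/MgCl2/DTT buffer. Compounds as ten 3-fold dilutions. Reaction 60 min, stopped with binding reagent for 1 h before polarization measurement.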

other PDE isoforms = details: reported in Annual Reports in Medicinal Chemistry 42: 4-5, 2007; cited from earlier work
[1] = reported in Annual Reports in Medicinal Chemistry 42: 4-5, 2007; cited from earlier work
[2] = Lab B, read-out: Rhesus PDE2 Ki (nM) Lab B
[3] = Lab A, read-out: Rhesus PDE2 Ki (nM) Lab A

T2 sequence (O00408 1-920 isoform O00408-2): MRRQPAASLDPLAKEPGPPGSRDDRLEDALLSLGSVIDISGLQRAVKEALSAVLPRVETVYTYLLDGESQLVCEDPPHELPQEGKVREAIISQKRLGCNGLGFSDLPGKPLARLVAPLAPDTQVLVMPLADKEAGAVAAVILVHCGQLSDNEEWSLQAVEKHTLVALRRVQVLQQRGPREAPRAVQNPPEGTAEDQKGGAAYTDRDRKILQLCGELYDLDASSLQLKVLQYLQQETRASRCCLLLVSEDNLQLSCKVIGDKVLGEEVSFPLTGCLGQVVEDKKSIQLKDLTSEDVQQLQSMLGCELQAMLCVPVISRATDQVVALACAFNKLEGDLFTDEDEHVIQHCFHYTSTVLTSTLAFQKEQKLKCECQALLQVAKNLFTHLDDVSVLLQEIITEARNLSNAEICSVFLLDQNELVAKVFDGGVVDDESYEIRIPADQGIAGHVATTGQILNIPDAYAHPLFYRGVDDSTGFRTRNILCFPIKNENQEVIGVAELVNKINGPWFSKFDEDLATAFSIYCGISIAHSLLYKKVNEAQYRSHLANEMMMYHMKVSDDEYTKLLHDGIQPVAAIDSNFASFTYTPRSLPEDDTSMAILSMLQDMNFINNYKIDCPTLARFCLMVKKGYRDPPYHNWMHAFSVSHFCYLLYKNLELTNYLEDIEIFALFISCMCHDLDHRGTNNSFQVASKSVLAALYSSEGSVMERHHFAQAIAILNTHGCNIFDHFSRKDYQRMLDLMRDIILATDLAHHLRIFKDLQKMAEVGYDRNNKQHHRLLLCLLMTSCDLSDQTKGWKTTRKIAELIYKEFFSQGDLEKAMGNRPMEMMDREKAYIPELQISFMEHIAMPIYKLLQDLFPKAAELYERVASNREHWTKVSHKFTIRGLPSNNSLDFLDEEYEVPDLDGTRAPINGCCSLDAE

Row | Compound | Ki (Rhesus PDE2A3; [2]) [nM] | Ki (human PDE2A1; Human PDE2 Ki (nM) Lab B) [nM] | further results
1 | COc1ccc(Cc2nn3c([C@@H](CCCc4ccccc4)[C@@H](C)O)nc(C)c3c(=O)[nH]2)cc1OC [BAY 60-7550] | – | – | potency at other PDE isoforms (other PDE isoforms): significant potency; brain penetration [1]: limited
2 | Cc1cc(NC2(c3ccc(C(F)(F)F)cc3)CC2)n2ncnc2n1 [Example 56, 5-Methyl-N-{1-[4-(trifluoromethyl)phenyl]cyclopropyl}[1,2,4]triazolo[1,5-a]pyrimidin-7-amine] | 61 | 79 | –
3 | CCc1cc(NC2(c3ccc(C(F)(F)F)c(F)c3)CC2)n2ncnc2n1 [Example 68, 5-Ethyl-N-{1-[3-fluoro-4-(trifluoromethyl)phenyl]cyclopropyl}[1,2,4]triazolo[1,5-a]pyrimidin-7-amine] | – | – | Ki (Rhesus PDE2A3): 29 nM; Ki (human PDE2A1; Lab B, read-out: Human PDE2 Ki (nM) Lab B): 35 nM
4 | CC(Nc1ccnc2ncnn12)c1ccc(C(F)(F)F)cc1 (stereo not shown) [Example 83, N-{1-[4-(Trifluoromethyl)phenyl]ethyl}[1,2,4]triazolo[1,5-a]pyrimidin-7-amine] | – | – | Ki (Rhesus PDE2A3; [3]): 4680 nM
5 | CC(Nc1ccnc2ncnn12)c1ccc(OC(F)(F)F)cc1 (stereo not shown) [Example 84, N-{1-[4-(Trifluoromethoxy)phenyl]ethyl}[1,2,4]triazolo[1,5-a]pyrimidin-7-amine] | – | – | Ki (Rhesus PDE2A3; [3]): 2770 nM

Second part, led by results:

Row | Ki (Rhesus PDE2A3; [2]) [nM] | Ki (human PDE2A1; Human PDE2 Ki (nM) Lab B) [nM] | Compound | further results
6 | 6.8 | 5.4 | Cc1cc(N[C@@H](c2ccc(OC(F)(F)F)c(F)c2)C(C)(C)O)n2ncnc2n1 (single isomer, unassigned) [Example 92] | –
7 | 5.6 | 4.6 | Cc1cc(NC(c2ccc(S(F)(F)(F)(F)F)cc2)C(C)(C)O)n2ncnc2n1 (single isomer, unassigned) [Example 117, (1R or S)-2-Methyl-1-[(5-methyl[1,2,4]triazolo[1,5-a]pyrimidin-7-yl)amino]-1-[4-(pentafluoro-λ^6-sulfanyl)phenyl] propan-2-ol] | –
8 | 22 | 21 | Cc1cc(NC2(c3ccc(C(F)(F)F)c(F)c3)CC2)n2ncnc2n1 [Example 57, N-{1-[3-Fluoro-4-(trifluoromethyl)phenyl]cyclopropyl}-5-methyl [1,2,4]triazolo[1,5-a]pyrimidin-7-amine] | –
9 | 12 | 10 | Cc1cc(N[C@@H](c2ccc(C(F)(F)F)c(F)c2)C(C)(C)O)n2ncnc2n1 [Example 98, (1S)-1-[3-Fluoro-4-(trifluoromethyl)phenyl]-2-methyl-1-[(5-methyl [1,2,4]triazolo[1,5-a]pyrimidin-7-yl)amino]propan-2-ol] | –
